In patent publication US11298361B2, “Fused benzazepines for treatment of Tourette's Syndrome” (EMALEX BIOSCIENCES, INC., priority 2012, dated 2022):
Where two headings read alike, the source gives them in different places.

Experiments:
[1] = target: D1/D5 receptor (^3H-23390); conditions: radioligand ^3H-23390; cited from earlier work
CAR = conditions: cited from earlier work
D2 receptor (^3H-Spip) = D2 receptor (^3H-Spip) (Homo sapiens, UniProt P14416)
[2] = test system: adenosine, benzodiazepine, glutamate/AMPA/kainate, GABA, muscarinic, nicotinic, opiate, alpha- or beta-adrenergic sites; assay: Binding at other receptor sites
D1 receptors = assay: In vitro studies on cAMP second messenger (adenylate cyclase); type: biochemical
Procedure: (§1) Activation of D1 receptors by dopamine and similar agonists stimulates the production of cyclic AMP (cAMP) via activation of adenylate cyclase. […] To ensure that there was no species specificity to the receptor binding profile, ecopipam's potency and selectivity were evaluated using cloned human receptors. […] Positron emission tomography (PET) studies using radiolabeled ecopipam have been conducted in healthy volunteers (Karlsson et al., Psychopharmacol. 121:300-308, 1995).

hD1/hD5 receptors = assay: Binding to cloned human receptors
Procedure: as §1

[3] = test system: adult patients with Tourette's Syndrome; assay: Open-label clinical study in adult patients with Tourette's Syndrome; type: in vivo, human
Procedure: A clinical program was carried out to test the safety, tolerability, and activity of ecopipam in adult patients with Tourette's Syndrome. A multicenter, open-label, nonrandomized study in 25 to 30 subjects was conducted to assess the activity and safety of ecopipam in subjects with TS. […] Assessment was performed at each visit. A follow-up visit was conducted via telephone at Week 10 to record any adverse events. Ecopipam was administered daily before bedtime at 50 mg/day for Week 1 and Week 2 and at 100 mg/day for Weeks 3-8. This treatment regimen is within the scope of the present invention; the compositions and various formulations described herein can be administered as described in this Example. The activity of ecopipam was measured using the following clinical rating scales: (1) Yale Global Tic Severity Scale (YGTSS; data based on this scoring system are presented below); (2) ADHD self-report symptom checklist (ASRS); (3)Yale-Brown Obsessive Compulsive Scale (YBOCS); (4) Premonitory Urge for […]; and (6) Clinical Global Impression Improvement and Severity Scales (CGI). The demographics of the study population were as follows: eighty three percent of the subjects were male (15 out of 18); fifteen were Caucasian, two were African-American, and one was an Asian/Pacific Islander. […] Four patients reported AEs that were rated as severe and included the following: sedation, insomnia, decreased appetite, hypersensitivity, cold sweat, and feeling jittery. The following AEs were rated mild to moderate and were reported in more than three subjects: fatigue, insomnia, nausea, sedation, headache, restlessness, anxiety, muscle twitching, dysphoria, and sleeplessness. These side effects are similar to those seen in other studies with ecopipam and were not unexpected.

D1/D5 receptors = conditions: rat brain homogenates, low concentrations; cited from earlier work
D1 receptor = conditions: rats, D1-agonist discriminative stimulus; cited from earlier work
[4] = target: dopamine D1 receptors in human brain (Homo sapiens, UniProt P21728); conditions: radiolabeled ecopipam, healthy volunteers; cited from earlier work
Sequence of dopamine D1 receptors in human brain (P21728 whole entry): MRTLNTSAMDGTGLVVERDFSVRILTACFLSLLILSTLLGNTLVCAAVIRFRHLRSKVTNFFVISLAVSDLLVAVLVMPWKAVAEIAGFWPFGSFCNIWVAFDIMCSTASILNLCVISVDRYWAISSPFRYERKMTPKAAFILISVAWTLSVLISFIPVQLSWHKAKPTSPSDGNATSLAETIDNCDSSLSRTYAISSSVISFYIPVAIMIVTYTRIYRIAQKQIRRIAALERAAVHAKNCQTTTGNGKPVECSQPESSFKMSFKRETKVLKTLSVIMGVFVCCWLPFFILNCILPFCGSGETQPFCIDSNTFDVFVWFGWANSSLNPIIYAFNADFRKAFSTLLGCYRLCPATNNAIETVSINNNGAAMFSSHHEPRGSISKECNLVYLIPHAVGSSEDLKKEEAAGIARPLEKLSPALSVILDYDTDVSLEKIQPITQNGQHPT

[5] = radioligand ^3H-Spip; read-out: Ki (nM) ^3H-Spip; cited from earlier work

Sequence of D2 receptor (^3H-Spip) (P14416 whole entry): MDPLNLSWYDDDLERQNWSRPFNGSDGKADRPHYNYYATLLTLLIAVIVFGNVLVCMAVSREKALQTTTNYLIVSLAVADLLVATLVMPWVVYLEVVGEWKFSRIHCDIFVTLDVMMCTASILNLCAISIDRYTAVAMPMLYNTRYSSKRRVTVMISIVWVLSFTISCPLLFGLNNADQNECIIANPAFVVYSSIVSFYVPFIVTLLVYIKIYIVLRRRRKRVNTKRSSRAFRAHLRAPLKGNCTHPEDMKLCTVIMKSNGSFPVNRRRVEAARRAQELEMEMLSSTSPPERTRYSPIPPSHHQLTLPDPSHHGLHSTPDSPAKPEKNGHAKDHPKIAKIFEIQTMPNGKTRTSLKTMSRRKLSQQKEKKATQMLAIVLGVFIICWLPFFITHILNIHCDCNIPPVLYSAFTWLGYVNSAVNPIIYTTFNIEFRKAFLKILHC

Compound: COc1cc2c(cc1O)C1c3ccccc3CCC1N(C)CC2 (stereo not drawn) [Q=CH2, n=1, trans, X=CH3O, Y=OH]
- Ki [1]: 23 nM
- CAR (MED), po (CAR): 30 mg/kg
- CAR (MED), sc (CAR; in mg/kg (unit assumed)): 0.3-1

Compound: CN1CCc2cc(Cl)c(O)cc2[C@H]2c3ccccc3CC[C@@H]21 [Q=CH2, n=1, 7b(R):7a(S)(−), X=Cl, Y=OH]
- CAR (MED), po (CAR): 30 (po)

Compound: COc1cc2c(cc1O)C1c3ccccc3CCCC1N(C)CC2 (stereo not drawn) [Q=CH2, n=2, trans, X=CH3O, Y=OH]
- Ki [1]: 292 nM
- Ki (D2 receptor (^3H-Spip); [5]): > 100000 nM
- CAR (MED), sc (CAR): 10 (sc)

Compound: CN1CCc2cc(Cl)c(O)cc2[C@H]2c3ccccc3CC[C@@H]21 [ecopipam, (−)-trans-6,7,7a,8,9,13b-hexahydro-3-chloro-2-hydroxy-N-methyl-5H-benzo [d]-naphtho-[2,1-b]azepine]
- Concentration multiple at which it did not bind to other sites [2]: > 700 fold
- Functional action on cAMP second messenger (D1 receptors): antagonist
- Affinity for hD1/hD5 receptors (hD1/hD5 receptors): high affinity
- Patients with at least one grade change in CGI-S score ([3]; 9 of the 15 patients, p≤0.01 Student's t test): 60%
- Subjects reporting adverse events ([3]; 18 subjects): All subjects reported at least one adverse event
- Change in YGTSS scores, intent to treat analysis ([3]; entire population n=18): statistically significant changes were evident
- Change in YGTSS scores (motor, phonic, total severity), baseline to last visit ([3]; fifteen patients who completed the trial, 50 mg/day Weeks 1-2, 100 mg/day Weeks 3-8): highly statistically significant (Paired t-Test p<0.001) reduction
- Changes in lab tests ([3]; human, in vivo): none were of clinical significance
- Changes in vital signs ([3]; human, in vivo): no clinically significant changes in vital signs
- Serious adverse events ([3]; requiring medical intervention): no serious adverse events
- Patients reporting AEs rated as severe ([3]; sedation, insomnia, decreased appetite, hypersensitivity, cold sweat, feeling jittery): Four
- Affinity for D1/D5 receptors (D1/D5 receptors): high affinity
- Action on dopamine-agonist-induced behaviors (D1 receptor): selective D1 antagonist
- PET binding in the human brain [4]: specific binding in the human brain

Compound: CN1CCc2cc(Cl)c(O)cc2C2c3ccccc3CC21 (stereo not drawn) [Q=CH2, n=0, trans, X=Cl, Y=OH]
- Ki [1]: 10 nM

Compound: CN1CCc2ccc(O)cc2C2c3ccccc3OCC21 (stereo not drawn) [Q=O, n=1, trans, X=H, Y=OH]
- Ki [1]: 121 nM

Compound: Cc1cc2c(cc1O)C1c3ccccc3CCC1N(C)CC2 (stereo not drawn) [Q=CH2, n=1, trans, X=CH3, Y=OH]
- Ki [1]: 119 nM

Compound: CN1CCc2cc(Cl)c(O)cc2[C@@H]2c3ccccc3CC[C@H]21 [Q=CH2, n=1, 7b(S):7a(R)(+), X=Cl, Y=OH]
- CAR (MED), po (CAR): >30 (po)

Compound: CN1CCc2cc(Cl)c(N)cc2C2c3ccccc3CCC21 (stereo not drawn) [Q=CH2, n=1, trans, X=Cl, Y=NH2]
- Ki [1]: 70 nM
- CAR (MED), po (CAR): 3 (po)

Compound: CN1CCc2cc(Cl)c(O)cc2C2c3ccccc3CCC21 (stereo not drawn) [Q=CH2, n=1, trans, X=Cl, Y=OH]
- CAR (MED), po (CAR): 30 mg/kg
- CAR (MED), sc (CAR; in mg/kg (unit assumed)): 0.3

Compound: COc1cc2c(cc1O)C1c3ccccc3CCC1N(C)CC2 (stereo not drawn) [Q=CH2, n=1, cis, X=CH3O, Y=OH]
- Ki [1]: 6450 nM
- Ki (D2 receptor (^3H-Spip); read-out: Ki (nM) ^3H-Spip; radioligand ^3H-Spip; cited from earlier work): > 100000 nM

Compound: COc1cc2c(cc1O)CCN(C)C1CCCc3ccccc3C21 (stereo not drawn) [Q=CH2, n=2, trans, X=HO, Y=CH3O]
- Ki [1]: 7730 nM
- Ki (D2 receptor (^3H-Spip); [5]): > 100000 nM
- CAR (MED), sc (CAR): 10 (sc)

Compound: CN1CCc2ccc(O)cc2C2c3ccccc3CCC21 (stereo not drawn) [Q=CH2, n=1, trans, X=H, Y=OH]
- Ki [1]: 80 nM
